Converted amounts (≈) assume the structure as drawn.
What was measured:
[1] = test system: Bacteroides fragilis, Clostridium perfringens, Clostridium difficele; format: cell-based; conditions: single concentration of compound (100 μM)
[2] = test system: L. major promastigotes; experiment: Leishmania promastigote assay (3H-thymidine)
[3] = Determination of solubility in phosphate buffer pH 7.4; format: physicochemical; conditions: aqueous buffer at pH 7.4
Experimental: Solubility of the compounds was determined by preparing a saturated solution of compound in 0.3 M phosphate buffer (pH 7.4±0.3) in a brown glass tube. The suspensions were rotated slowly for 24 hours. Aliquots were centrifuged for 10 minutes at 14.000 rpm and supernatants were diluted in 40% (v/v) acetonitrile in water prior to HPLC analysis. Concentrations of analytes were quantified against a standard curve and used as term of solubility.
The HPLC-UV method used for the assessment of solubility is the same as used in the in vitro metabolism assay.

[4] = test system: Eschericia coli ESS; experiment: MIC determination in broth microdilution assay; conditions: H: Eschericia coli ESS; NA: no activity
[5] = test system: Staphylococcus aureus ATCC33591 (resistant to methicillin); experiment: MIC determination in broth microdilution assay; conditions: B: Staphylococcus aureus ATCC33591 (resistant to methicillin); NA: no activity
[6] = test system: Staphylococcus intermedius #2357 (clinical isolate); experiment: MIC determination in broth microdilution assay; conditions: C: Staphylococcus intermedius #2357; NA: no activity
[7] = test system: Enterococcus faecium #17501 (vancomycin-resistant clinical isolate); experiment: MIC determination in broth microdilution assay; conditions: E: Enterococcus faecium #17501 (vancomycin-resistant); NA: no activity
[8] = test system: Enterococcus faecalis ATCC29212; experiment: MIC determination in broth microdilution assay; conditions: D: Enterococcus faecalis ATCC29212; NA: no activity
[9] = test system: Streptococcus pneumoniae #998 (clinical isolate); experiment: MIC determination in broth microdilution assay; conditions: F: Streptococcus pneumoniae #998; NA: no activity
[10] = test system: Staphylococcus aureus ATCC29213; experiment: MIC determination in broth microdilution assay; conditions: A: Staphylococcus aureus ATCC29213; NA: no activity
[11] = test system: Plasmodium falciparum 3D7; experiment: Plasmodium falciparum assay (3H-phenylalanine labelling); format: cell-based; conditions: for IC50: Plasmodium falciparum 3D7 (Table 2), read-out: IC50
[12] = Determination of metabolic stability (liver microsomes); format: in vitro ADME, Wistar rat; conditions: rat liver microsomes, 20 μM, 15 min at 37° C.
Experimental: incubations were performed with Wistar rat liver microsomes (0.25 mg/ml) in 2% sodium bicarbonate solution. NADP (0.13 mg/ml), glucose-6-phosphate (0.63 mg/ml) and glucose-6-phosophate dehydrogenase (0.38 units/ml) were used as NADPH generation system and UDPGA (0.48 mg/ml) was added to include the phase II reaction, glucuronic acid conjugation, in the assay. After 5 minutes of pre-incubation the reaction was started by addition of the test article to give a final concentration of 20 μM. Samples were incubated for 15 min at 37° C. and the reactions were terminated by addition of equal volumes of acetonitrile. Blank incubations were performed at the same concentration but without addition of microsomes. Both blank and microsome-containing samples were made in replicats of three. Prior to analysis samples were centrifuged for 10 min. at 3500 rpm, HPLC system:
Initial conditions were 40% mobile phase A (acetonitrile) and 60% mobile phase B (10 mM ammonium acetate pH 9.5). During the first 20 minutes, the mobile phase was changed via a linear gradient to 90% A and 10% B. This was followed by a 5 minutes linear gradient to initial conditions, which were maintained for 5 min. The flow rate was 0.20 ml/min and injection volume 10 μl.

CN(C)CCNc1ccc(C(=O)/C=C/c2ccc(Cl)cc2Cl)cc1 [B022, (E)-3-(2,4-Dichloro-phenyl)-1-[4-(2-dimethylamino-ethylamino)-phenyl]-propenone]
activity against anaerobic bacteria [1]: activity against all microorganisms within the test panel
IC50 ([2]; L. major): 800 nM

COc1ccc(/C=C/C(=O)c2ccccc2N(C)CCN(C)C)cc1 [B023, (E)-1-{2-[(2-Dimethylamino-ethyl)-methyl-amino]-phenyl}-3-(4-methoxy-phenyl)-propenone]
Solubility [3]: 30.6 mg/mL (≈ 90.4 mM)

CN(C)CCNc1cccc(C(=O)/C=C/c2ccc(Cl)cc2Cl)c1 [B039, (E)-3-(2,4-Dichloro-phenyl)-1-[3-(2-dimethylamino-ethylamino)-phenyl]-40 propenone]
activity against anaerobic bacteria [1]: activity against all microorganisms within the test panel
IC50 ([2]; L. major): 1000 nM

COc1ccccc1C(=O)/C=C/c1ccccc1N(C)CCN(C)C [B056, (E)-3-{2-[(2-Dimethylamino-ethyl)-methyl-amino]-phenyl}-1-(2-methoxy-phenyl)-propenone]
Solubility [3]: 3.2 mg/mL (≈ 9.45 mM)

COc1ccc(C(=O)/C=C/c2cc(-c3ccccc3OC)ccc2N2CCN(C)CC2)c(F)c1 [B083, (E)-1-(2-Fluoro-4-methoxy-phenyl)-3-[2′-methoxy-4-(4-methyl-piperazin-1-yl)-biphenyl-3-yl]-propenone]
MIC [4]: 9.4 µM (≈ 4.33 µg/mL)
MIC [5]: 9.4 µM (≈ 4.33 µg/mL)
MIC [6]: 9.4 µM (≈ 4.33 µg/mL)
MIC [7]: 9.4 µM (≈ 4.33 µg/mL)
MIC [8]: 18.8 µM (≈ 8.66 µg/mL)
IC50 ([2]; L. major): 500 nM
MIC [9]: 37.5 µM (≈ 17.3 µg/mL)
MIC [10]: 4.7 µM (≈ 2.16 µg/mL)

COc1ccc(C(=O)/C=C/c2cc(-c3cc(C)cc(C)c3)ccc2N(C)CCN(C)C)c(CN(C)C)c1 [B114, (E)-3-{4-[(2-Dimethylamino-ethyl)-methyl-amino]-3′,5′-dimethyl-biphenyl-3-yl}-1-(2-dimethylaminomethyl-4-methoxy-phenyl)-propenone]
Solubility [3]: 4.3 mg/mL (≈ 8.61 mM)

CN(C)CCN(C)c1cc(Br)cc(/C=C/C(=O)c2ccccc2CN(C)C)c1 [B118, (E)-3-{3-Bromo-5-[(2-dimethylamino-ethyl)-methyl-amino]-phenyl}-1-(2-dimethylaminomethyl-phenyl)-propenone]
times more potent than LicA ([11]; Plasmodium falciparum, dose-response curve FIG. 6): 40

CN(C)Cc1ccccc1C(=O)/C=C/c1cc(N2CCN(C)CC2)ccc1Br [B124, (E)-3-[2-Bromo-5-(4-methyl-piperazin-1-yl)-phenyl]-1-(2-dimethylaminomethyl-phenyl)-propenone]
Solubility [3]: 2.0 mg/mL (≈ 4.52 mM)

CN(C)CCCNc1cc(Br)cc(/C=C/C(=O)c2ccccc2CN(C)C)c1 [B126, (E)-3-[3-Bromo-5-(3-dimethylamino-propylamino)-phenyl]-1-(2-dimethylaminomethyl-phenyl)-propenone]
Solubility [3]: 8.3 mg/mL (≈ 18.7 mM)

Cc1ccccc1-c1ccc(N(C)CCCN(C)C)c(/C=C/C(=O)c2ccccc2CN(C)C)c1 [B147, (E)-1-(2-Dimethylaminomethyl-phenyl)-3-{4-[(3-dimethylamino-propyl)-methyl-amino]-2′-methyl-biphenyl-3-yl}-propenone]
IC50 [11]: 600 nM

Cc1ccccc1-c1ccc(N(C)CCN(C)C)c(/C=C/C(=O)c2ccccc2CN(C)C)c1 [B148, (E)-3-{4-[(2-Dimethylamino-ethyl)-methyl-amino]-2′-methyl-biphenyl-3-yl}-1-(2-dimethylaminomethyl-phenyl)-propenone]
Solubility [3]: 3.3 mg/mL (≈ 7.24 mM)

COc1ccccc1-c1ccc(N2CCN(C)CC2)c(/C=C/C(=O)c2ccccc2NS(=O)(=O)c2ccccc2)c1 [B185, (E)-N-(2-{3-[2′-Methoxy-4-(4-methyl-piperazin-1-yl)-biphenyl-3-yl]-acryloyl}-phenyl)-benzenesulfonamide]
Metabolic turn-over in vitro [12]: 0%
IC50 ([2]; Leishmania major): 200 nM

Cc1ccccc1-c1ccc(N2CCN(C)CC2)c(/C=C/C(=O)c2ccc(O)cc2)c1 [B209, (E)-1-(4-Hydroxy-phenyl)-3-[2′-methyl-4-(4-methyl-piperazin-1-yl)-biphenyl-3-yl]-propenone]
IC50 [11]: 300 nM

From US7642367B2, “Diamino-functional chalcones” (Lica Pharmaceuticals A/S, priority 2002, dated 2010)
